Laboratory results reported in patent US8168860B2, “Compositions and methods for the modification of physiological responses in plants” (Rohm and Haas Company, priority 2007, dated 2012).
Values joined by “and” are separate entries in the source; they are usually repeats but may differ in a detail not shown here. Equal values may be shown once.

Key:
Format in all cases: in vivo
[1] = system: transformed tobacco plants; test: Triple response assay, shoot length of transformed tobacco shoots in dark with ethylene; conditions: for Shoot Length Avg (cm) / Shoot Length (cm): induced, 10 μM inducer, ethylene about 10 ppm, 18 days; for Shoot Length (cm): single shoots
Protocol: A triple response assay as described in Guzman and Ecker 1990 The Plant Cell, 2:513-523, modified as provided herein, was conducted to determine the effect of the modulation of ethylene sensitivity in the transformed tobacco plants of Example 2. From each transformed plant designated 185-1, 184-3, 185-8, 185-11, 187-7, 187-13, 187-17 and 187-21, two leaves from each plant were cut into small pieces. These pieces were plated onto MSS plates containing […] kanamycin, with or without 10 μM inducer, i.e., 3,5 Dimethyl-benzoic acid N-(1-ethyl-2,2-dimethyl-propyl)-N′-(3S-hydroxymethyl-5-methyl-2,3-dihydro-benzo[1,4]dioxine-6-carbonyl)hydrazide. MSS plates without antibiotic or inducer were used as controls.
These plated plant tissues were grown at 25° C. with light in growth chambers to induce shoots. Shoots were transferred into fresh plates for about two weeks for continued growth at 25° C. Each callus was then transferred to new culture dishes with or without inducer. Each callus with shoots starting to initiate was split into several plates with approximately equal amounts of callus per plate.
The plates were then separated into groups for the following treatment protocols which lasted for 18 days
Shoot length was measured, and the relative assessment of the efficacy of the transgenic plants prepared according to the Examples based on raw data for shoot length is reported in Table I for conditions (a) through (d) above. Typically, wild-type shoots exposed to ethylene in the dark display stunted growth. Ethylene insensitive plants under these conditions should show elongated growth. […] Shoots grown in the light produced uninterpretable data.

[2] = system: tomato seedlings (WT, p1002-18, p1003-16); test: Tomato seedling growth on 20 μM inducer and various levels of ACC; conditions: 20 μM inducer; for Hypocotyl (mm) / Root (mm): 14 day old seedlings
[3] = system: tomato seedlings p1002-18-3; test: Transient induction: tomato seedlings on 20 μM ACC, inducer removed after 2-14 days; conditions: for Hypocotyl (mm) / Root (mm) / Hypocotyl Percent (%) / Root Percent (%): p1002-18-3 tomato; for Hypocotyl (mm) / Root (mm): dark, 14 day old seedlings
Protocol: After 14 days growth in the dark, hypocotyls and roots were measured to assess ethylene insensitivity. Ethylene insensitive seedlings would be expected to have longer hypocotyls and roots. […] Thus, root and hypocotyl growth of the reversed seedlings should be intermediate between the sensitive and insensitive seedlings.

[4] = 10 μM inducer, 2 days with inducer, 12 days without, 20 μM ACC
[5] = 10 μM inducer, 2 days with inducer, 12 days without, relative to 14 days with inducer
[6] = 10 μM inducer, 4 days with inducer, 10 days without, 20 μM ACC
[7] = 10 μM inducer, 4 days with inducer, 10 days without, relative to 14 days with inducer
[8] = 10 μM inducer, 6 days with inducer, 8 days without, 20 μM ACC
[9] = 10 μM inducer, 6 days with inducer, 8 days without, relative to 14 days with inducer
[10] = 10 μM inducer, 8 days with inducer, 6 days without, 20 μM ACC
[11] = 10 μM inducer, 8 days with inducer, 6 days without, relative to 14 days with inducer
[12] = 10 μM inducer, 14 days with inducer, 0 days without (reference)
[13] = 10 μM inducer, 14 days with inducer, 0 days without, 20 μM ACC

For CCC(N(NC(=O)c1ccc2c(c1C)O[C@@H](CO)CO2)C(=O)c1cc(C)cc(C)c1)C(C)(C)C (stereo partly drawn) [inducer, 3,5 Dimethyl-benzoic acid N-(1-ethyl-2,2-dimethyl-propyl)-N′-(3S-hydroxymethyl-5-methyl-2,3-dihydro-benzo[1,4]dioxine-6-carbonyl)hydrazide], the “Shoot Length Avg (cm)” value ([1]; tobacco plant 185-1 (VGE)) was 2.8 cm, the “Shoot Length Avg (cm)” value ([1]; tobacco plant 185-8 (VGE)) was 4.6 cm and the “Shoot Length (cm)” value ([1]; tobacco plant 185-8 (VGE)) was 5.5 cm and 5.0 cm and 4.0 cm and 4.4 cm and 4.3 cm. The “Shoot Length Avg (cm)” value ([1]; tobacco plant 185-11 (VGE)) was 4.0 cm, the “Shoot Length (cm)” value ([1]; tobacco plant 185-11 (VGE)) was 4.0 cm and 4.5 cm and 3.0 cm and the “Shoot Length Avg (cm)” value ([1]; tobacco plant 187-7 (GVE)) was 3.0 cm. For the same compound, the “Shoot Length (cm)” value ([1]; tobacco plant 187-7 (GVE)) was 3.0 cm, the “Shoot Length Avg (cm)” value ([1]; tobacco plant 187-13 (GVE)) was 3.9 cm and the “Shoot Length (cm)” value ([1]; tobacco plant 187-13 (GVE)) was 4.0 cm and 3.5 cm and 5.0 cm and 3.0 cm. The “Shoot Length Avg (cm)” value ([1]; tobacco plant 187-17 (GVE)) was 4.3 cm, the “Shoot Length (cm)” value ([1]; tobacco plant 187-17 (GVE)) was 5.6 cm and 3.5 cm and the “Shoot Length Avg (cm)” value ([1]; tobacco plant 187-21 (GVE)) was 3.4 cm. For the same compound, the “Shoot Length (cm)” value ([1]; tobacco plant 187-21 (GVE)) was 4.0 cm and 3.5 cm and 3.0 cm and 2.5 cm, the “ethylene insensitivity, based on increased shoot length compared to non-induced transgenic plants” value ([1]; transgenic tobacco with etr1-1 cassettes, presence of inducer, ethylene) was “demonstrated ethylene insensitivity” and the “Hypocotyl (mm)” value ([2]; WT tomato, 5 μM Ag) was 41.4 ± 8.20 mm. For the same compound, the “Root (mm)” value ([2]; WT tomato, 5 μM Ag) was 22.3 ± 5.66 mm, the “Hypocotyl (mm)” value ([2]; WT tomato, ACC 0 μM) was 36.4 ± 9.44 mm and the “Root (mm)” value ([2]; WT tomato, ACC 0 μM) was 28.8 ± 6.26 mm. For the same compound, the “Hypocotyl (mm)” value ([2]; WT tomato, ACC 1 μM) was 25.9 ± 12.7 mm, the “Root (mm)” value ([2]; WT tomato, ACC 1 μM) was 14.4 ± 9.42 mm and the “Hypocotyl (mm)” value ([2]; WT tomato, ACC 2.5 μM) was 11.3 ± 6.25 mm. The “Root (mm)” value ([2]; WT tomato, ACC 2.5 μM) was 12.3 ± 9.41 mm, the “Hypocotyl (mm)” value ([2]; WT tomato, ACC 5 μM) was 8.50 ± 4.35 mm and the “Root (mm)” value ([2]; WT tomato, ACC 5 μM) was 10.4 ± 8.73 mm. The “Hypocotyl (mm)” value ([2]; WT tomato, ACC 10 μM) was 7.71 ± 1.20 mm, the “Root (mm)” value ([2]; WT tomato, ACC 10 μM) was 13.1 ± 10.8 mm and the “Hypocotyl (mm)” value ([2]; WT tomato, ACC 20 μM) was 3.21 ± 1.19 mm. For the same compound, the “Root (mm)” value ([2]; WT tomato, ACC 20 μM) was 11.2 ± 9.40 mm, the “Hypocotyl (mm)” value ([2]; p1002-18 tomato, 5 μM Ag) was 38.2 ± 6.85 mm and the “Root (mm)” value ([2]; p1002-18 tomato, 5 μM Ag) was 31.6 ± 5.68 mm. The “Hypocotyl (mm)” value ([2]; p1002-18 tomato, ACC 0 μM) was 40.7 ± 9.50 mm, the “Root (mm)” value ([2]; p1002-18 tomato, ACC 0 μM) was 30.9 ± 7.14 mm and the “Hypocotyl (mm)” value ([2]; p1002-18 tomato, ACC 1 μM) was 28.4 ± 18.0 mm. The “Root (mm)” value ([2]; p1002-18 tomato, ACC 1 μM) was 24.7 ± 7.53 mm, the “Hypocotyl (mm)” value ([2]; p1002-18 tomato, ACC 2.5 μM) was 29.4 ± 15.0 mm and the “Root (mm)” value ([2]; p1002-18 tomato, ACC 2.5 μM) was 25.8 ± 8.50 mm. For the same compound, the “Hypocotyl (mm)” value ([2]; p1002-18 tomato, ACC 5 μM) was 27.3 ± 9.03 mm, the “Root (mm)” value ([2]; p1002-18 tomato, ACC 5 μM) was 24.0 ± 7.77 mm and the “Hypocotyl (mm)” value ([2]; p1002-18 tomato, ACC 10 μM) was 28.0 ± 14.1 mm. For the same compound, the “Root (mm)” value ([2]; p1002-18 tomato, ACC 10 μM) was 24.8 ± 6.03 mm, the “Hypocotyl (mm)” value ([2]; p1002-18 tomato, ACC 20 μM) was 26.5 ± 15.1 mm and the “Root (mm)” value ([2]; p1002-18 tomato, ACC 20 μM) was 24.1 ± 3.98 mm. For the same compound, the “Hypocotyl (mm)” value ([2]; p1003-16 tomato, 5 μM Ag) was 36.3 ± 9.08 mm, the “Root (mm)” value ([2]; p1003-16 tomato, 5 μM Ag) was 23.8 ± 4.92 mm and the “Hypocotyl (mm)” value ([2]; p1003-16 tomato, ACC 0 μM) was 39.8 ± 17.1 mm. The “Root (mm)” value ([2]; p1003-16 tomato, ACC 0 μM) was 18.7 ± 3.94 mm, the “Hypocotyl (mm)” value ([2]; p1003-16 tomato, ACC 1 μM) was 39.3 ± 11.0 mm and the “Root (mm)” value ([2]; p1003-16 tomato, ACC 1 μM) was 18.2 ± 716 mm. The “Hypocotyl (mm)” value ([2]; p1003-16 tomato, ACC 2.5 μM) was 38.9 ± 18.2 mm, the “Root (mm)” value ([2]; p1003-16 tomato, ACC 2.5 μM) was 12.9 ± 8.61 mm and the “Hypocotyl (mm)” value ([2]; p1003-16 tomato, ACC 5 μM) was 33.0 ± 15.2 mm. The “Root (mm)” value ([2]; p1003-16 tomato, ACC 5 μM) was 12.9 ± 9.36 mm, the “Hypocotyl (mm)” value ([2]; p1003-16 tomato, ACC 10 μM) was 29.7 ± 18.8 mm and the “Root (mm)” value ([2]; p1003-16 tomato, ACC 10 μM) was 12.7 ± 12.1 mm. For the same compound, the “Hypocotyl (mm)” value ([2]; p1003-16 tomato, ACC 20 μM) was 24.3 ± 15.2 mm, the “Root (mm)” value ([2]; p1003-16 tomato, ACC 20 μM) was 13.0 ± 7.92 mm and the “induction of ethylene insensitivity over ACC concentrations” value ([2]; tomato p1002 and p1003 line, ACC 1.0-20 μM) was “induction of ethylene insensitivity occurred across the range of ACC concentrations tested”. For the same compound, the “Hypocotyl (mm)” value [3, 4] was 16.9 ± 4.30 mm, the “Root (mm)” value [3, 4] was 26.2 ± 15.3 mm and the “Hypocotyl Percent (%)” value [3, 5] was 63.8%. The “Root Percent (%)” value [3, 5] was 69.9%, the “Hypocotyl (mm)” value [3, 6] was 19.5 ± 7.52 mm and the “Root (mm)” value [3, 6] was 28.7 ± 14.7 mm. The “Hypocotyl Percent (%)” value [3, 7] was 73.6%, the “Root Percent (%)” value [3, 7] was 76.5% and the “Hypocotyl (mm)” value [3, 8] was 26.8 ± 6.27 mm. For the same compound, the “Root (mm)” value [3, 8] was 29.8 ± 9.61 mm, the “Hypocotyl Percent (%)” value [3, 9] was 101% and the “Root Percent (%)” value [3, 9] was 79.5%. For the same compound, the “Hypocotyl (mm)” value [3, 10] was 26.0 ± 10.3 mm, the “Root (mm)” value [3, 10] was 38.3 ± 9.15 mm and the “Hypocotyl Percent (%)” value [3, 11] was 98.1%. The “Root Percent (%)” value [3, 11] was 102%, the “Hypocotyl Percent (%)” value [3, 12] was 100% and the “Root Percent (%)” value [3, 12] was 100%. For the same compound, the “Hypocotyl (mm)” value [3, 13] was 26.5 ± 7.51 mm, the “Root (mm)” value [3, 13] was 37.5 ± 13.2 mm and the “duration of induction sufficient for a full state of ethylene insensitivity” value ([3]; tomato p1002 line, 10 μM inducer, 20 μM ACC) was “Six days was sufficient to induce a full state of ethylene insensitivity”. For the same compound, the “reversal after removal of inducer” value ([3]; tomato p1002 line, induced for 2 or 4 days then removed from inducer, compared to non-induced control) was “showed return to a state of ethylene sensitivity”.
